{"source": "the supplement of paper PMC10307832", "test_in_all_cases": "relative viability (nuclei count vs DMSO), 5 days (fraction); higher = more cells survive", "key": {"Vismodegib + Luminespib": {"compound": "CS(=O)(=O)c1ccc(C(=O)Nc2ccc(Cl)c(-c3ccccn3)c2)c(Cl)c1 [Vismodegib] + CCNC(=O)c1noc(-c2cc(C(C)C)c(O)cc2O)c1-c1ccc(CN2CCOCC2)cc1 [Luminespib] (partner 0.01 µM)", "method_in_brief": "(§1)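 Dosing by pin tool came one day after lung cancer cell lines were seeded in 1536-well plates, using either one drug or a fixed anchor-drug dose plus five library-drug doses (not always all listed) in √10 steps. After 5 days, nuclei were counted on 4× images. Relative viability is treated-well nuclei count divided by vehicle-well nuclei count, and values are medians of duplicate plates.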"}, "Ruxolitinib + Luminespib": {"compound": "N#CC[C@H](C1CCCC1)n1cc(-c2ncnc3[nH]ccc23)cn1 [Ruxolitinib] + CCNC(=O)c1noc(-c2cc(C(C)C)c(O)cc2O)c1-c1ccc(CN2CCOCC2)cc1 [Luminespib] (partner 0.01 µM)", "method_in_brief": "as §1"}, "VE-821 + Decitabine": {"compound": "CS(=O)(=O)c1ccc(-c2cnc(N)c(C(=O)Nc3ccccc3)n2)cc1 [VE-821] + Nc1ncn([C@H]2C[C@H](O)[C@@H](CO)O2)c(=O)n1 [Decitabine] (partner 2 µM)", "method_in_brief": "as §1"}, "VE-821 + Crizotinib": {"compound": "CS(=O)(=O)c1ccc(-c2cnc(N)c(C(=O)Nc3ccccc3)n2)cc1 [VE-821] + C[C@@H](Oc1cc(-c2cnn(C3CCNCC3)c2)cnc1N)c1c(Cl)ccc(F)c1Cl [Crizotinib] (partner 1 µM)", "method_in_brief": "as §1"}}}
{"cell line": "UMC-11", "values": [{"measurement": "relative viability", "setting": "Vismodegib + Luminespib; first compound 0.08 µM", "result": 0.937}, {"measurement": "relative viability", "setting": "Vismodegib + Luminespib; first compound 0.253 µM", "result": 0.966}, {"measurement": "relative viability", "setting": "Vismodegib + Luminespib; first compound 0.8 µM", "result": 1.01}, {"measurement": "relative viability", "setting": "Vismodegib + Luminespib; first compound 2.53 µM", "result": 0.933}, {"measurement": "relative viability", "setting": "Vismodegib + Luminespib; first compound 8 µM", "result": 1.04}, {"measurement": "relative viability", "setting": "Ruxolitinib + Luminespib; first compound 0.08 µM", "result": 1.04}, {"measurement": "relative viability", "setting": "Ruxolitinib + Luminespib; first compound 0.253 µM", "result": 1.03}, {"measurement": "relative viability", "setting": "Ruxolitinib + Luminespib; first compound 0.8 µM", "result": 1.26}, {"measurement": "relative viability", "setting": "Ruxolitinib + Luminespib; first compound 2.53 µM", "result": 1.1}, {"measurement": "relative viability", "setting": "Ruxolitinib + Luminespib; first compound 8 µM", "result": 0.978}, {"measurement": "relative viability", "setting": "VE-821 + Decitabine; first compound 0.08 µM", "result": 0.687}, {"measurement": "relative viability", "setting": "VE-821 + Decitabine; first compound 0.253 µM", "result": 0.617}, {"measurement": "relative viability", "setting": "VE-821 + Decitabine; first compound 0.8 µM", "result": 0.583}, {"measurement": "relative viability", "setting": "VE-821 + Decitabine; first compound 2.53 µM", "result": 0.664}, {"measurement": "relative viability", "setting": "VE-821 + Decitabine; first compound 8 µM", "result": 0.479}, {"measurement": "relative viability", "setting": "VE-821 + Crizotinib; first compound 0.08 µM", "result": 0.85}, {"measurement": "relative viability", "setting": "VE-821 + Crizotinib; first compound 0.253 µM", "result": 0.681}, {"measurement": "relative viability", "setting": "VE-821 + Crizotinib; first compound 0.8 µM", "result": 0.534}, {"measurement": "relative viability", "setting": "VE-821 + Crizotinib; first compound 2.53 µM", "result": 0.626}, {"measurement": "relative viability", "setting": "VE-821 + Crizotinib; first compound 8 µM", "result": 0.238}]}
